{"source": "patent EP0981359B1", "about": "“COMPOSITIONS FOR ENHANCING IMMUNOSUPPRESSANTS' PHARMACOLOGICAL ACTIVITIES” (Zavialov, Vladimir Petrovich, priority 1997, dated 1998)", "key": {"[1]": {"target": "common receptors on mouse thymocytes", "details": "cited from earlier work"}, "[2]": {"tested_on": "human T-lymphoblastoid cell line MT-4", "test": "proliferation of IFN-sensitive T-lymphoblastoid cell line", "format": "cell-based", "details": "MT-4 cell line"}, "human peripheral cells": {"tested_on": "human peripheral cells", "test": "mitogen (PHA)-driven proliferation, [3H]-thymidine incorporation", "format": "cell-based", "method": "Ninety five ml of blood were taken from each of 10 volunteer donors, and 5 ml of 3-5% EDTA were added to the blood immediately and mixed carefully to prevent coagulation. The blood was than mixed with the equal volume of medium 199 or with buffered physiological salt solution. Ficoll-Paque (Pharmacia) was poured into plastic centrifuge test-tubes with caps (Costar) (3 ml of Ficoll-Paque per each test-tube, volume of a test-tube - 15 ml, diameter - 13 mm at room temperature, and then 6-7 ml of diluted blood were carefully layered on top). The test-tubes were centrifuged at 20 °C for 40 minutes, at 400 g, with the brake of centrifuge being switched off. The mononuclear cells formed a layer on the border of the liquid division and the cells were collected with a Pasteur pipette into a centrifuge test-tube with 5 ml of RPMI 1640, containing 2% of inactivated fetal serum and penicillin (100 units/ml) with streptomycin (100 units/ml). Then the cells were washed with physiological buffer solution (PBS) three times with centrifuging at 400 g for 5 minutes at the temperature of +8 °C. When the concentration of the cells was 2.5^·10^6 cells/ml, they were placed in RPMI 1640 medium, containing 5% of fetal serum (heated for 30 minutes at 56 °C), 100 units/ml of penicillin, 100 units/ml of streptomycin, 1 ml 200 mM of L-glutamine per 100 ml of serum. All the reagents were produced by Gibco. The cells were dropped into a 96-well plate (100 µl per each plate) with mitogen - phytohemagglutinin (PHA) (final concentration - […]), the preparations under study and immunosuppressants (cyclosporin A, FK506 or rapamycin) in concentration - […]) were pipetted into the tubes beforehand. The plate was placed in a CO2-incubator at 5% CO2 with humid atmosphere for 72 hours. 12-18 hours before the completion of the incubation […] of [^3H]-thymidine was added into each well. […] The number of disintegrations per minute was counted using a Minibeta counter (LKB). The stimulation index was determined by arithmetical mean of at least three parallel measurements ±SD to the corresponding control."}}, "note": "pKi: −log10 of the molar value."}
{"substance": "α-peptoferon: octapeptide corresponding to the high-affinity binding/anti-lymphoproliferative site of hIFN-α2 (TMα1-like sequence 130-137) (LKEKKYSP; UniProt P01563 153-160, looked up, fragment)", "values": [{"measurement": "pKi", "setting": "[1]; mouse thymocytes, read-out: Ki of recombinant (r)hIFN-α2 binding by α-peptoferon", "value": "~12.00"}, {"measurement": "affinity to the specific receptors in comparison with recombinant hIFN-α2", "setting": "[1]; previous studies", "value": "the same or higher affinity"}, {"measurement": "effect on the proliferation of MT-4", "setting": "[2]", "value": "inhibited by rhIFN-α2 and a-peptoferon in a dose-dependent fashion"}, {"measurement": "effect on the proliferation of MT-4 compared with rhIFN-α2", "setting": "[2]", "value": "comparable effects"}, {"measurement": "effect on mitogen (PHA)-driven proliferation (lymphoproliferative response)", "setting": "human peripheral cells; PHA, 72 hours, no immunosuppressant", "value": "inhibited by rhIFN-α2 and a-peptoferon in a dose-dependent fashion"}, {"measurement": "effect on PHA-driven proliferation compared with rhIFN-α2", "setting": "human peripheral cells; PHA, no immunosuppressant", "value": "comparable effects"}, {"measurement": "effect on PHA-driven proliferation in the presence of cyclosporin A", "setting": "human peripheral cells; in the presence of 20 mM CsA in cultural medium, rhIFN-α2 at 10^-16 M", "value": "comparable effect"}]}
